ChEMBL document CHEMBL1177790, “Activity of substituted thiophene sulfonamides against malarial and mammalian cyclin dependent protein kinases” (Bioorg Med Chem Lett, 2010)

Assays:
[1] = target: T1, Protein kinase Pfmrk (Plasmodium falciparum, UniProt P90584); test: Inhibition of His6x-tagged Plasmodium falciparum Pfmrk expressed in Escherichia coli by microtiter plate scintillation counting
T1 sequence (P90584 whole entry): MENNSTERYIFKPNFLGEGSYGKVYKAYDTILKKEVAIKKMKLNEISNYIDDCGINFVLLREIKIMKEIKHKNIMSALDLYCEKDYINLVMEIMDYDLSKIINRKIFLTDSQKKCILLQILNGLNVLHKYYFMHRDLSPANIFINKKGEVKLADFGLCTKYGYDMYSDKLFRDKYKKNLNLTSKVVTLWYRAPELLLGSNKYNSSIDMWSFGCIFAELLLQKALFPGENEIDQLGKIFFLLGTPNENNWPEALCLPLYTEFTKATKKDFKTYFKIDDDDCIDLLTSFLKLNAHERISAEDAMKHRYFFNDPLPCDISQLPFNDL

[2] = target: Cyclin-dependent kinase 7/ cyclin H (Homo sapiens, UniProt P50613); test: Inhibition of human CDK7/Cyclin H/MAT1; format: protein-complex assay
Chain of Cyclin-dependent kinase 7/ cyclin H (P51946 whole entry): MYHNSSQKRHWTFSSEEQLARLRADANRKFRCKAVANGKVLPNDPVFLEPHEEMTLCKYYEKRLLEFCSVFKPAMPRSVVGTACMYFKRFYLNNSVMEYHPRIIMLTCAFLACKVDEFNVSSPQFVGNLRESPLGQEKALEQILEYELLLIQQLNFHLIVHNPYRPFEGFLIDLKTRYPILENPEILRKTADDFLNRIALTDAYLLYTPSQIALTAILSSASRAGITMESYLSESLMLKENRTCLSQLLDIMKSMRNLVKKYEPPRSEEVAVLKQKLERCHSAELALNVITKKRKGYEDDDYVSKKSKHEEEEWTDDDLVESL
Chain of Cyclin-dependent kinase 7/ cyclin H (P50613 whole entry): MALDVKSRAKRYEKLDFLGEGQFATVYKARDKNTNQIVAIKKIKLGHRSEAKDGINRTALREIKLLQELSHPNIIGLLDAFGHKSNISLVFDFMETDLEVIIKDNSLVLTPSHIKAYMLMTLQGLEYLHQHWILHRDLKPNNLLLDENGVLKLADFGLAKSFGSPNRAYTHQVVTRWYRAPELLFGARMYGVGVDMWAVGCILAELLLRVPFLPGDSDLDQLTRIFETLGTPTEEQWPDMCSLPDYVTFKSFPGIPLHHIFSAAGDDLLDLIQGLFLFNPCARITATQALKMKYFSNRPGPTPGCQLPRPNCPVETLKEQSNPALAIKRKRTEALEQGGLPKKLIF

[3] = target: CDK6/cyclin D1 (Homo sapiens, UniProt Q00534); test: Inhibition of human CDK6/Cyclin D1; format: protein-complex assay
Chain of CDK6/cyclin D1 (P24385 whole entry): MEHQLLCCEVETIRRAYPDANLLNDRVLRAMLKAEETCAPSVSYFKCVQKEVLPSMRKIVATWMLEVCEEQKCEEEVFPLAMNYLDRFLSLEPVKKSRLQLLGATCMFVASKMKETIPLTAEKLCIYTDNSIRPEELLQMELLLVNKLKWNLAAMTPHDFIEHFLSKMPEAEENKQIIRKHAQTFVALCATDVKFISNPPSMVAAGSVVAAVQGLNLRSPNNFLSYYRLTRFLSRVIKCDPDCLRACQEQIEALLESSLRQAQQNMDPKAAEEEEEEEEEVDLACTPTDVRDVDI
Chain of CDK6/cyclin D1 (Q00534 whole entry): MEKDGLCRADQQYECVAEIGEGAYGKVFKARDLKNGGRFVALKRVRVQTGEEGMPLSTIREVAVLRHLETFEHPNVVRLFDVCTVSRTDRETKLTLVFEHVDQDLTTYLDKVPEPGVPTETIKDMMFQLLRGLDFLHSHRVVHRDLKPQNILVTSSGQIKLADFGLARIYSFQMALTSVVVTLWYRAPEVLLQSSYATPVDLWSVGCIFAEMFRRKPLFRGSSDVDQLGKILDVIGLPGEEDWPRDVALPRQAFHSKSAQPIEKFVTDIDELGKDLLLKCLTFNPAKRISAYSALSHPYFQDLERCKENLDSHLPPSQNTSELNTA

[4] = target: Cyclin-dependent kinase 1/cyclin B1 (Homo sapiens, UniProt P06493); test: Inhibition of human CDK1/cyclin B; format: protein-complex assay
Chain of Cyclin-dependent kinase 1/cyclin B1 (P06493 whole entry): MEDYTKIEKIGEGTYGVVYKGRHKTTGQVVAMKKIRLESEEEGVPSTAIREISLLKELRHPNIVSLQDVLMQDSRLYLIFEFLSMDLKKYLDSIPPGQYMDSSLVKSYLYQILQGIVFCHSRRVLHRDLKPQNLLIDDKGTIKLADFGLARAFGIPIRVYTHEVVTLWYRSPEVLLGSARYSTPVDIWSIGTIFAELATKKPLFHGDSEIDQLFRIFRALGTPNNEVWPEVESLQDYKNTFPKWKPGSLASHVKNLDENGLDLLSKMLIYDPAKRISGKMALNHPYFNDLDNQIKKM
Chain of Cyclin-dependent kinase 1/cyclin B1 (P14635 whole entry, further chain): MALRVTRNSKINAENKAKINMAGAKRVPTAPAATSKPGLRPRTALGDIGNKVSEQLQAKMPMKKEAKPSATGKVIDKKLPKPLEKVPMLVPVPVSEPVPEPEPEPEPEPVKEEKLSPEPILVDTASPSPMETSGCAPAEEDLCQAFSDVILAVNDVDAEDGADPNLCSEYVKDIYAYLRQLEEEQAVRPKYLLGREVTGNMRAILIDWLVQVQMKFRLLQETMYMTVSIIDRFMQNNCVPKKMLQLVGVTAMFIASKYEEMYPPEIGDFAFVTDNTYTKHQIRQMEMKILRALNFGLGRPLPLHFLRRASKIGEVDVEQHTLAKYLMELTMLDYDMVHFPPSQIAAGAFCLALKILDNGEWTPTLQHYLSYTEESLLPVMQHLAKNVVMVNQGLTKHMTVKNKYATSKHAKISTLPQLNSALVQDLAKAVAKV

[5] = target: Cyclin-dependent kinase 2/cyclin A (Homo sapiens, UniProt P24941); test: Inhibition of human CDK2/Cyclin A; format: protein-complex assay
[6] = test system: Plasmodium falciparum; test: Antimalarial activity against chloroquine-resistant Plasmodium falciparum W2 assessed as inhibition of [3H]hypoxanthine incorporation after 24 hrs by microtiter plate scintillation counting; format: functional, organism-based
[7] = test system: RAW264.7; test: Cytotoxicity against mouse RAW264.7 cells after 24 hrs by MTT assay; format: cell-based; details: RAW264.7, 24 h
[8] = test system: DU-145; test: Cytotoxicity against human DU145 cells after 24 hrs by MTT assay; format: functional, cell-based; details: DU-145, 24 h
[9] = test system: LoVo; test: Cytotoxicity against human LoVo cells after 24 hrs by MTT assay; format: functional, cell-based
[10] = Cytotoxicity against human Hs578 cells after 24 hrs by MTT assay; format: functional, cell-based; details: Hs578, 24 h
[11] = test system: MCF7; test: Cytotoxicity against human MCF7 cells after 24 hrs by MTT assay; format: functional, cell-based; details: MCF7, 24 h
[12] = Therapeutic index, IC50 for Plasmodium falciparum W2 to IC50 for mice (Mus musculus) RAW264.7 cells

Structure (SMILES): O=C(NNC(=O)c1ccccc1F)c1ccc2ccccc2c1
- IC50 [1]: 0.4 µM

Structure (SMILES): Cc1ccccc1NC(=O)NC(=O)c1ccccc1Cl
- IC50 [1]: 0.2 µM

Structure (SMILES): N#CC(NCC(O)c1ccccc1)c1ccc(Cl)c(Cl)c1 (stereo not drawn)
- IC50 [1]: 0.6 µM

Structure (SMILES): O=S(=O)(Nc1ccc(C(F)(F)F)cc1)c1ccc(C(F)(F)F)cc1
- IC50 [1]: 16.5 µM

Structure (SMILES): Cc1ccc(NS(=O)(=O)c2ccc(Br)cc2)cc1Cl
- IC50 [1]: 15.9 µM

Structure (SMILES): NS(=O)(=O)c1cc([N+](=O)[O-])c(Cl)s1
- IC50 [1]: 17.4 µM

Structure (SMILES): Cc1cccc(C)c1N(C(=O)CCl)S(=O)(=O)c1cc(Cl)sc1Cl
- IC50 [1]: 20.7 µM

Structure (SMILES): Cc1ccc(N(C(=O)CCl)S(=O)(=O)c2c(Cl)sc(Cl)c2Cl)cc1
- IC50 [1]: 40.1 µM

Structure (SMILES): O=C(CBr)N(c1ccccc1)S(=O)(=O)c1cc(Cl)sc1Cl
- IC50 [1]: 0.6 µM
- IC50 [2]: 33.4 µM
- IC50 [3]: 34.9 µM
- IC50 [4]: 21.5 µM
- IC50 [5]: 28.5 µM
- IC50 [6]: 23.3 µM
- IC50 [7]: 89.5 µM
- IC50 [8]: 91 µM
- IC50 [9]: 71.6 µM
- IC50 [10]: 51.1 µM
- IC50 [11]: 62 µM

Structure (SMILES): O=C(CBr)N(c1ccc(Cl)cc1)S(=O)(=O)c1cc(Cl)sc1Cl
- IC50 [1]: 0.8 µM

Structure (SMILES): Cc1ccc(Cl)cc1NS(=O)(=O)c1cc(Cl)ccc1Cl
- IC50 [1]: 45.4 µM

Structure (SMILES): O=S(=O)(Nc1cccc(C(F)(F)F)c1)c1ccc(Cl)cc1
- IC50 [1]: 13.1 µM

Structure (SMILES): O=S(=O)(c1cc(Cl)sc1Cl)N(SC(Cl)(Cl)Cl)c1ccccc1
- IC50 [1]: 29.7 µM

Structure (SMILES): O=S(=O)(Nc1ccc(Cl)cc1SC(Cl)(Cl)Cl)c1cc(Cl)sc1Cl
- IC50 [1]: 19.7 µM

Structure (SMILES): O=S(=O)(Nc1cccc(C(F)(F)F)c1)c1cc(Cl)c(Cl)cc1Cl
- IC50 [1]: 0.6 µM
- IC50 [2]: 0.2 µM
- IC50 [3]: 58.8 µM
- IC50 [4]: 0.1 µM
- IC50 [5]: 10 µM
- IC50 [6]: 24.7 µM
- IC50 [7]: 90.4 µM
- IC50 [8]: 44.2 µM
- IC50 [9]: 65.1 µM
- IC50 [10]: 55.1 µM
- IC50 [11]: 63.8 µM

Structure (SMILES): COc1ccc(S(=O)(=O)Nc2cccc(C(F)(F)F)c2)cc1
- IC50 [1]: 48.4 µM

Structure (SMILES): O=S(=O)(Nc1ccccc1)c1cc(Cl)sc1Cl
- IC50 [1]: 14.9 µM

Structure (SMILES): Cc1ccc(NS(=O)(=O)c2cc(Cl)sc2Cl)cc1
- IC50 [1]: 0.6 µM
- IC50 [2]: 0.8 µM
- IC50 [3]: 51.3 µM
- IC50 [4]: 49.3 µM
- IC50 [5]: 31.4 µM
- IC50 [6]: 31 µM
- IC50 [7]: 74.7 µM
- IC50 [8]: 81.1 µM
- IC50 [9]: 69.3 µM
- IC50 [10]: 40.2 µM
- IC50 [11]: 66.1 µM

Structure (SMILES): Cc1cc(C)c(NS(=O)(=O)c2ccc(Br)cc2)c(C)c1NS(=O)(=O)c1ccc(Br)cc1
- IC50 [1]: 50.2 µM

Structure (SMILES): Cc1ccc(Cl)cc1S(=O)(=O)Nc1ccc(Cl)c(Cl)c1
- IC50 [1]: 15.1 µM
- IC50 [2]: 0.4 µM
- IC50 [3]: 110 µM
- IC50 [4]: 0.8 µM
- IC50 [5]: 10.5 µM
- IC50 [6]: 17 µM
- IC50 [7]: 76.6 µM
- IC50 [8]: 45.4 µM
- IC50 [9]: 55 µM
- IC50 [10]: 54 µM
- IC50 [11]: 57.3 µM

Structure (SMILES): Cc1cc(Cl)ccc1NS(=O)(=O)c1cc(Cl)ccc1Cl
- IC50 [1]: 11 µM

Structure (SMILES): O=S(=O)(Nc1cc(Cl)cc(Cl)c1)c1cc(Cl)sc1Cl
- IC50 [1]: 333 µM

Structure (SMILES): O=S(=O)(Nc1ccc(Cl)cc1)c1c(Cl)sc(Cl)c1Cl
- IC50 [1]: 31.5 µM

Structure (SMILES): Cc1ccc(N(SC(Cl)(Cl)Cl)S(=O)(=O)c2cc(Cl)sc2Cl)cc1
- IC50 [1]: 0.3 µM
- IC50 [2]: 0.7 µM
- IC50 [3]: 18 µM
- IC50 [4]: 10.5 µM
- IC50 [5]: 11.5 µM
- IC50 [6]: 21.2 µM
- IC50 [7]: 39.3 µM
- IC50 [8]: 53 µM
- IC50 [9]: 70.3 µM
- IC50 [10]: 24.9 µM
- IC50 [11]: 30.1 µM

Structure (SMILES): Cc1ccc(N(C(=O)C(Cl)Cl)S(=O)(=O)c2cc(Cl)sc2Cl)cc1
- IC50 [1]: 127 µM

Structure (SMILES): O=C1Cc2c([nH]c3ccc([N+](=O)[O-])cc23)-c2ccccc2N1 [ALSTERPAULLONE]
- IC50 [7]: 2.2 µM
- IC50 [8]: 1.1 µM
- IC50 [9]: < 1 µM
- IC50 [10]: 1.9 µM
- IC50 [11]: 2.7 µM

Structure (SMILES): O=C1Nc2ccccc2/C1=C1/Nc2ccccc2C1=O [INDIRUBIN]
- IC50 [6]: 1.1 µM
- IC50 [7]: 6.1 µM
- IC50 [8]: 6.8 µM
- IC50 [9]: 2.2 µM
- IC50 [10]: 6.9 µM
- IC50 [11]: 6.7 µM

Structure (SMILES): OC(c1cc(C(F)(F)F)nc2c(C(F)(F)F)cccc12)C1CCCCN1 (stereo not drawn) [MEFLOQUINE]
- IC50 [6]: 0.1 µM
- IC50 [7]: 6.5 µM
- IC50 [8]: 14.4 µM
- IC50 [9]: 7.9 µM
- IC50 [10]: 12.1 µM
- IC50 [11]: 10.6 µM
- selectivity ratio [12]: 65
